Test results from PMC9454089, “Structural and Mechanistic Evidence for Calcium Interacting Sites in the HIV Transmembrane Protein gp41 Involved in Membrane Fusion” (Biochemistry, 2022).
Where two headings read alike, the source gives them in different places. Residues, ends and D or L forms follow the SMILES beside them.

Tested on: gp41 mediated cell–cell fusion (HXB2 strain HIV-1 Env; HL2-3 / TZM-bl cells)
Type: cell-based
Conditions: Figure 3, TZM-bl target and HL2/3 effector cells, 6 h coculture at 37 °C, luciferase, average ± S.E.M., n = 3, read-out: IC50, inhibition of cell–cell fusion
Description: Effector cells were the Env expressing cells HL2-3, a HeLa-derived cell line which constitutively expresses the HXB2 strain of the HIV-1 Env glycoprotein along the Tat protein, and as target cells, TZM-bl cells were used. The fusion of HL2-3 cells with TZM-bl cells was assessed through luciferase expression. The TZM-bl cells were seeded at 2 × 10^4 cells/well overnight in 96-well plates. The medium was then aspirated from each well and replaced with serum-free DMEM containing 40 μg/mL DEAE-dextran. […] Upon addition of the peptides, the HL2-3 cells were added to the TZM-bl cells in serum-free DMEM containing 40 μg/mL DEAE-dextran at a 1:1 cell ratio. The cells were cocultured at 37 °C for 6 h to allow the fusion to occur. Luciferase activity was analyzed using the Steady-Glo luciferase assay kit (Promega). Fitting of the data points was performed according to the following equation, derived from Hills’ equation [drawing 1]
For the fitting, we uploaded the X and Y values of the data into a nonlinear least-square regression (curve fitter) program that provided the IC50 value (parameter A).
A one-tailed Student’s T-test was used. P < 0.05 was considered significant. Analyses were done using GraphPad Prism (data analysis software) version 6.05 (*P ≤ 0.05, **P ≤ 0.01, and ***P ≤ 0.001).

SMILES	IC50 (0 mM Ca2+) [nM]	IC50 (2 mM Ca2+) [nM]	IC50 (5 mM Ca2+) [nM]
CC[C@H](C)[C@H](NC(=O)[C@H](CCC(=O)O)NC(=O)[C@H](CCCNC(=N)N)NC(=O)[C@H](C)NC(=O)[C@H](Cc1c[nH]c2ccccc12)NC(=O)[C@H](CCC(=O)O)NC(=O)[C@H](CCSC)NC(=O)[C@@H](N)Cc1c[nH]c2ccccc12)C(=O)N[C@@H](CC(N)=O)C(=O)N[C@@H](CC(N)=O)C(=O)N[C@@H](Cc1ccc(O)cc1)C(=O)N[C@H](C(=O)N[C@@H](CO)C(=O)N[C@@H](CC(C)C)C(=O)N[C@H](C(=O)N[C@@H](Cc1c[nH]cn1)C(=O)N[C@@H](CO)C(=O)N[C@@H](CC(C)C)C(=O)N[C@H](C(=O)N[C@@H](CCC(=O)O)C(=O)N[C@@H](CCC(=O)O)C(=O)N[C@@H](CO)C(=O)N[C@@H](CCC(N)=O)C(=O)N[C@@H](CC(N)=O)C(=O)N[C@@H](CCC(N)=O)C(=O)N[C@@H](CCC(N)=O)C(=O)N[C@@H](CCC(=O)O)C(=O)N[C@@H](CCCCN)C(=O)N[C@@H](CC(N)=O)C(=O)N[C@@H](CCC(=O)O)C(=O)N[C@@H](CCC(N)=O)C(=O)N[C@@H](CCC(=O)O)C(=O)N[C@@H](CC(C)C)C(=O)N[C@@H](CC(C)C)C(N)=O)[C@@H](C)CC)[C@@H](C)CC)[C@@H](C)O [C34 D-A]	0.6 ± 0.4	1.5 ± 0.7	
CC[C@H](C)[C@H](NC(=O)CNC(=O)[C@H](Cc1c[nH]c2ccccc12)NC(=O)[C@@H](NC(=O)[C@@H](NC(=O)[C@H](CC(C)C)NC(=O)[C@H](CCC(N)=O)NC(=O)[C@H](CC(C)C)NC(=O)[C@H](CC(C)C)NC(=O)[C@H](C)NC(=O)[C@H](CCC(N)=O)NC(=O)[C@H](CCC(N)=O)NC(=O)[C@H](C)NC(=O)[C@H](C)NC(=O)[C@@H](NC(=O)[C@H](C)NC(=O)[C@H](C)NC(=O)[C@H](CC(C)C)NC(=O)[C@H](CC(C)C)NC(=O)[C@H](CC(N)=O)NC(=O)[C@H](CC(N)=O)NC(=O)[C@H](CCC(N)=O)NC(=O)[C@H](CCC(N)=O)NC(=O)[C@H](CCC(N)=O)NC(=O)[C@@H](NC(=O)[C@@H](NC(=O)CNC(=O)[C@@H](N)CO)[C@@H](C)CC)C(C)C)[C@@H](C)CC)[C@@H](C)O)C(C)C)C(=O)N[C@@H](CCCCN)C(=O)N[C@@H](CCC(N)=O)C(=O)N[C@@H](CC(C)C)C(=O)N[C@@H](CCC(N)=O)C(=O)N[C@@H](C)C(=O)N[C@@H](CCCNC(=N)N)C(=O)N[C@H](C(=O)N[C@@H](CC(C)C)C(N)=O)[C@@H](C)CC [N36 3A] (H-SGIVQQQNNLLAAIAAQQALLQLTVWGIKQLQARIL-NH2)	2980 ± 1070	262 ± 180	800 ± 140
